From patent US20250179027A1, “CYCLOALKYL OR HETEROCYCLYL SUBSTITUTED HETEROARYL COMPOUND, AND COMPOSITION AND USE THEREOF” (Shenzhen TargetRx, Inc., priority 2022, published 2025)

Experiments:
ITK = target: T1, ITK (Homo sapiens, UniProt Q08881); assay: HTRF kinase activity inhibition assay, ITK; type: biochemical; details: HTRF TK kit
T1 construct: purchased Carna 08-181
T1 sequence (Q08881 1-620): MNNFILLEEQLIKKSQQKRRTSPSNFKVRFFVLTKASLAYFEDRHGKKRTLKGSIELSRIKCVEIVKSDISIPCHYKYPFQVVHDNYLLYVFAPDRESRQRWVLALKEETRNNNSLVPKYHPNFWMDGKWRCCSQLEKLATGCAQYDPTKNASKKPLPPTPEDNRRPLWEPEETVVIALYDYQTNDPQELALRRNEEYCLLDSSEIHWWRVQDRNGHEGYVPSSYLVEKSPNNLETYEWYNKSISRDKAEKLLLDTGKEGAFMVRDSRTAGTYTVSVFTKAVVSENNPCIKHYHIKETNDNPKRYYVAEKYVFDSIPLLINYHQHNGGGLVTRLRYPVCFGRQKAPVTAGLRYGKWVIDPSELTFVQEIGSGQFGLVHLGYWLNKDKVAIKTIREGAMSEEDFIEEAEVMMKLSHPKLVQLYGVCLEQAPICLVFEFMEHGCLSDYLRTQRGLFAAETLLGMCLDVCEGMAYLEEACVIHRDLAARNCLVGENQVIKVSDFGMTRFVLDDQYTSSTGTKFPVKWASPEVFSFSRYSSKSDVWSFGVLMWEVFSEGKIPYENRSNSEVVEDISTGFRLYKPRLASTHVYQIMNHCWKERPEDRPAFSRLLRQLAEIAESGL
Source text: (§1) In this assay, the HTRF TK Kit (Catalog No. 62TKOPEC) provided by Cisbio was used to detect the inhibitory activity of compounds on BTK kinase and BTK C481S kinase and the selectivity of compounds relative to EGFR, ITK and TEC kinases.
(§2) Reagents and consumables: BTK kinase (Invitrogen, Catalog No. PV3587), BTK C481S (Carna, Product No. 08-547), ITK (Carna, Product No. 08-181), EGFR (Carna, Product No. 08-115), TEC (Carna, Product No. 08-182), HTRF-TK kit (Cisbio, Product No. 62TKOPEC), MgCl2 (Sigma, Product No. M1028), MnCl2 (Sigma, Product No. M1787), DTT (Sigma, Product No. D0632), ATP (Sigma, Product No. A7699-1 g), DMSO (Sigma, Product No. D2650), 384-well plate (PE, Product No. 6008280).
(§3) The entire operation steps were carried out on ice, and the total reaction volume was 10 μL. The compound (4 μL), substrate and ATP (4 μL), kinase (2 μL) were added in sequence to a 384-well plate, and shaked for 30 seconds. After an appropriate time at room temperature, the detection reagent was added. After 1 hour at room temperature, the plate was detected with a microplate reader. The specific steps were as follows: • a) 1× kinase buffer solution required for kinase detection was calculated according to the amount of the detection compound, and prepared as needed; • b) compounds with 2.5×working concentration were prepared, the 100 times gradient concentration solution of compounds was diluted by 4 μL to the desired concentration, mixed well, and added to each well at 4 μL per well; • c) 5×working concentration of substrate and ATP were prepared, mixed in a ratio of 1:1 before adding to a 384-well plate, and added to each well at 4 μL per well; • d) 5×working concentration of kinase was prepared, and 2 μL was added to each well; • e) the plate was shaked on a microplate oscillator for 30 seconds, sealed with a sealing membrane, and reacted at room temperature for an appropriate time; • f) 4×working concentrations of streptavidin XL-665 and TK antibody-cryptate compound were prepared, mixed in a ratio of 1:1 before adding to a 384-well plate, and added to each well at 10 μL per well; • g) the plate was read after reacting at room temperature for 1 hour; • h) the wells with only substrate, ATP and 1% DMSO added but no kinase were blank control wells, and the wells with only substrate, ATP, 1% DMSO and kinase were positive control wells.
(§4) Readings: The values of 620 nm (cryptate) and 665 nm (XL665) were read with a BioTek Synerg Neo2 microplate reader, the ratio of 665/620 per well was calculated, and the data were exported. Data analysis: IC50 was calculated using GraphPad Prism 7.0 software. The following nonlinear fitting formula was used to obtain the IC50 (half inhibitory concentration) of compounds:
(§5) [formula] • X: Compound concentration log value • Y: Inhibition rate (% inhibition)
(§6) The kinase inhibition rate (% inhibition rate) was calculated as: […]

BTK kinase = target: T2, BTK kinase (Homo sapiens, UniProt Q06187); assay: HTRF kinase activity inhibition assay, BTK; type: biochemical; details: HTRF TK kit
T2 construct: purchased Invitrogen PV3587
T2 sequence (Q06187 whole entry): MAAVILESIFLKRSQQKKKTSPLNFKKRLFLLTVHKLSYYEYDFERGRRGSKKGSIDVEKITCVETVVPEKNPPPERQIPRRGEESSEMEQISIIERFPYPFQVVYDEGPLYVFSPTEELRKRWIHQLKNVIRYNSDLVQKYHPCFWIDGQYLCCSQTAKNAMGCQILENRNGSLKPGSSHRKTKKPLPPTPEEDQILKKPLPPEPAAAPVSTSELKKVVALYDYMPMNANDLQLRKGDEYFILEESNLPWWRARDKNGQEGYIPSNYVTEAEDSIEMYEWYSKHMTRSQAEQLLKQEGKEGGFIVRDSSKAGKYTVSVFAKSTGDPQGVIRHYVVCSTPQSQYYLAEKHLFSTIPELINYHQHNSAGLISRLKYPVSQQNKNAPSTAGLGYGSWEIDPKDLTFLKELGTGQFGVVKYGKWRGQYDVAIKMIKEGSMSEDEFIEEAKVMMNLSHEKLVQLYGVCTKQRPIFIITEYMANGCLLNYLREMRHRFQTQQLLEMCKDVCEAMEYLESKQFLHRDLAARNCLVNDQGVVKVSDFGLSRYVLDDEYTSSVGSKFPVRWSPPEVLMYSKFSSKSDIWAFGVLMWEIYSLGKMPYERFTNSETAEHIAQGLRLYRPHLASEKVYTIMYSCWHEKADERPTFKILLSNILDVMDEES
Source text: as §1, §2, §3, §4, §5, §6

TEC = target: T3, TEC (Homo sapiens, UniProt P42680); assay: HTRF kinase activity inhibition assay, TEC; type: biochemical; details: HTRF TK kit
T3 construct: purchased Carna 08-182
T3 sequence (P42680 1-631): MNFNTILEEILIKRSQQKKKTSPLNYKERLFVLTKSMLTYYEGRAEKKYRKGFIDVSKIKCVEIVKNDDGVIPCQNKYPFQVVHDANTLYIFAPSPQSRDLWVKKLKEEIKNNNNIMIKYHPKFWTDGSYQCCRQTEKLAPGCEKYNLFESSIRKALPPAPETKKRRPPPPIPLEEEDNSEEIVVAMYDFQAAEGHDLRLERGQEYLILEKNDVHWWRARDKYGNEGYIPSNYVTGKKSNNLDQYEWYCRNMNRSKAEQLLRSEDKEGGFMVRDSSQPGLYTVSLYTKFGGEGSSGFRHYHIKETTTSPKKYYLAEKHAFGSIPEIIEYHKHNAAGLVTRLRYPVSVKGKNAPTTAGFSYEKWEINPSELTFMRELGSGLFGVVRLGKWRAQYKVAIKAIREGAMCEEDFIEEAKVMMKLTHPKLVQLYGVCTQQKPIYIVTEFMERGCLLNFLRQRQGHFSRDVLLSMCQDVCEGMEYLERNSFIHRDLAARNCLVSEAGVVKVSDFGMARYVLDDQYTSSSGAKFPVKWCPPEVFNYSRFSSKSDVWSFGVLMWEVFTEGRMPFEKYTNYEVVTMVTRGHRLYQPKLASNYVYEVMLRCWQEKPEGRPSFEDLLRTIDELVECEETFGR
Source text: as §1, §2, §3, §4, §5, §6

[1] = target: T4, phosphorylated BTK Y223 in NIH/3T3 BTK WT cells (Homo sapiens, UniProt Q06187); assay: Phosphor-BTK(Y223) assay, NIH/3T3 BTK WT cells; type: cell-based; details: phosphorylated BTK Y223, NIH/3T3 BTK WT cells; read-out: NIH/3T3 BTK-WT pBTK IC50
T4 construct: expressed in transfected cells; host or cells: NIH/3T3 (mouse fibroblasts) engineered to express BTK WT
T4 sequence (Q06187 whole entry): as the sequence (Q06187 whole entry) above
Procedure: The purpose of this assay is to simply, quickly and directly detect the endogenous level of BTK in cells. The specific assay steps are as follows: Day 1: NIH/3T3 BTK WT cells (7.5 k/well) and NIH/3T3 BTK C481S cells (10 k/well) were plated in 96-well plates, respectively, and cultured overnight at 37° C. and 5% CO2.
• 1. A 3-fold final concentration gradient dilution of the compound was prepared, and 50 μL was added to 100 μL of cell culture; 0.5% DMSO was used as a positive control for cell growth. • 2. The plate was incubated at 37° C., 5% CO2 for 0.5 h. • 3. Na3VO4 with a final concentration of 1 mM was added, and incubated at 37° C. and 5% CO2 for 2 hours. • 4. During the incubation, the following reagents were prepared: 1× added lysis buffer: 3 vol ddH2O+1 vol 4× lysis buffer+100× blocking reagent. p-BTK (Y223) cryptate-antibody and p-BTK (Y223) d2-antibody working solutions: 1 volume of each cryopreserved antibody (stored at −20° C.) was added to 19 times volumes of assay buffer (stored at 4° C.). • 5. After the incubation, the medium was removed and 50 μL of 1× added lysis buffer was added; The mixture was centrifuged at 500 rpm for 30 min at room temperature. • 6. The lysate was mixed well and 16 μL was transferred to a 384-well plate; 1× added lysis buffer was used as a blank control. • 7. 4 μL of pre-mixed working solutions of the two antibodies (cryptate Ab:d2 Ab=1:1) were added and the plate was sealed. • 8. The plate was incubated overnight at room temperature.
Biotek cytation3.0 microplate reader was used to read the plate at 665 nm and 620 nm, and the ratio of 665/620 nm per well was calculated.
IC50 was calculated using GraphPad Prism 7.0 software.
The following nonlinear fitting formula was used to obtain the phosphorylated BTK Y223 IC50 (half phosphorylation inhibitory concentration) of the compounds:
as §5
The formula for calculating cell phosphorylation inhibition rate (% inhibition rate) was: […]

EGFR = target: T5, EGFR (Homo sapiens, UniProt P00533); assay: HTRF kinase activity inhibition assay, EGFR; type: biochemical; details: HTRF TK kit
T5 construct: purchased Carna 08-115
T5 sequence (P00533 669-1210 limits assumed): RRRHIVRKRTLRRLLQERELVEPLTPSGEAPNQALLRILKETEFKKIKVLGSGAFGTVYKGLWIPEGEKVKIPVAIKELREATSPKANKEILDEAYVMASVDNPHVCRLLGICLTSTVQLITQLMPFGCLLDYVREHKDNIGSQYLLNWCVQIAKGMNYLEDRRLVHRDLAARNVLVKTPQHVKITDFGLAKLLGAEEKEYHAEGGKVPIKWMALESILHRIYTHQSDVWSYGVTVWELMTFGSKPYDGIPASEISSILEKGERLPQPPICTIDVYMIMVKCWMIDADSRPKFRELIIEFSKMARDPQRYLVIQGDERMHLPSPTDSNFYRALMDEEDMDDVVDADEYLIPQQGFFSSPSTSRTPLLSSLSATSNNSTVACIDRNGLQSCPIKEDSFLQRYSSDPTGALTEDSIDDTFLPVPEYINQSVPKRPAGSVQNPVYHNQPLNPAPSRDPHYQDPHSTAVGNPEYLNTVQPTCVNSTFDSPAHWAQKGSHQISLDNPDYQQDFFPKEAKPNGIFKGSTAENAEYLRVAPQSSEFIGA
Source text: as §1, §2, §3, §4, §5, §6

Row | Structure (SMILES) | IC50 (ITK) | IC50 (BTK kinase) | IC50 (TEC) | IC50 [1] | IC50 (EGFR)
1 | COc1ccc(F)cc1C(=O)NCc1ccc(-c2nn(C3CCC(O)C3)c3ncnc(N)c23)cc1 (single isomer, unassigned) [Example 34, N-(4-(4-amino-1-(3-hydroxycyclopentanyl)-1H-pyrazolo[3,4-d]pyrimidin-3-yl)benzyl)-5-fluoro-2-methoxybenzamide] | > 10000 nM | ≤ 10 nM | 100 to 1000 nM | ≤ 25 nM | 50 to 100 nM
2 | COc1ccc(F)cc1C(=O)NCc1ccc(-c2nn(C3CCC(O)C3)c3ncnc(N)c23)cc1 (single isomer, unassigned) [Example 35, N-(4-(4-amino-1-(3-hydroxycyclopentanyl)-1H-pyrazolo[3,4-d]pyrimidin-3-yl)benzyl)-5-fluoro-2-methoxybenzamide] | > 10000 nM | ≤ 10 nM | 100 to 1000 nM | ≤ 25 nM | 50 to 100 nM
3 | COc1ccc(F)cc1C(=O)NCc1ccc(-c2nn(C3CCC(O)C3)c3ncnc(N)c23)cc1 (single isomer, unassigned) [Example 33, N-(4-(4-amino-1-(3-hydroxycyclopentanyl)-1H-pyrazolo[3,4-d]pyrimidin-3-yl)benzyl)-5-fluoro-2-methoxybenzamide] | > 10000 nM | ≤ 10 nM | 100 to 1000 nM | ≤ 25 nM | 50 to 100 nM
4 | COc1ccc(F)cc1C(=O)NCc1ccc(-c2nn(C3CCC(O)C3)c3ncnc(N)c23)cc1 (single isomer, unassigned) [Example 36, N-(4-(4-amino-1-(3-hydroxycyclopentanyl)-1H-pyrazolo[3,4-d]pyrimidin-3-yl)benzyl)-5-fluoro-2-methoxybenzamide] | > 10000 nM | ≤ 10 nM | 100 to 1000 nM | ≤ 25 nM | 1000 to 10000 nM
